{"source": "patent US20050255096A1", "about": "“Combination treatment for acute myocardial infarction” (priority 2002, published 2005)", "test_system": "patients with acute myocardial infarction", "experiment": "Effect of the combination on the mortality of the patients with acute myocardial infarction (180 day mortality)", "type": "in vivo", "settings": "6-hour infusion of levosimendan, bolus 6, 12 or 24 μg/kg then 0.1, 0.2 or 0.4 μg/kg/min", "method": "Effect of the combination on the mortality of the patients with acute myocardial infarction\nPatients who had suffered from acute myocardial infarction within five days received placebo or a 6-hour infusion of levosimendan using a bolus of 6, 12 or 24 μg/kg and subsequent infusion of 0.1, 0.2 or 0.4 μg/kg/min. Patients were divided according to whether they had received thrombolytic therapy or not. The 180 day mortality was measured. It can be seen that the combination provided synergistic reduction in the mortality of patients with acute myocardial infarction.", "key": {"[1]": {"settings": "patients who did not receive thrombolytic, N = 331"}, "[2]": {"settings": "patients who received thrombolytic, N = 70"}}}
{"smiles": "CC1CC(=O)NN=C1c1ccc(NN=C(C#N)C#N)cc1", "note": "(single isomer, unassigned; (-)) [Levosimendan, (−)-enantiomer of [[4-(1,4,5,6-tetrahydro-4-methyl-6-oxo-3-pyridazinyl)phenyl]hydrazono]propanedinitrile]", "values": [{"measurement": "180-day mortality, Event (%)", "setting": "[1]", "result": 24.8, "unit": "%"}, {"measurement": "180-day mortality, Event n", "setting": "[1]", "result": 82}, {"measurement": "180-day mortality, Event (%)", "setting": "[2]", "result": 12.8, "unit": "%"}, {"measurement": "180-day mortality, Event n", "setting": "[2]", "result": 9}]}
